Test [1] has as its target T1, PBD of Plk1 (Homo sapiens, UniProt P53350).
T1 construct: The Plk1 PBD protein (residues 371−603) was purified as previously described; made in house
Description: Fluorescence polarization assay, Plk1 PBD. The class given is binding. To be noted: 25 nM 5-carboxyfluorescein-DPPLHSpTAI-OH, Figure 8, read-out: IC50 PBD1. Here is the method:
Fluorescein-labeled peptides (5-carboxyfluorescein-DPPLHSpTAI-OH, final concentration: 25 nM) were incubated with the PBDs of Plk1, Plk2, and Plk3, respectively (final concentrations of buffer components: 10 mM Tris [pH 8.0], 1 mM EDTA, 50 mM NaCl, and 0.01% Nonidet P-40). Fluorescence polarization was analyzed 10 min after mixing all components in the 384-well format using a Molecular Devides SpectraMax Paradigm Multi-Mode Microplate Detection Platform. All experiments were performed in triplicate.
(Polarisation of emitted light reports the rotation of a fluorescent probe.)

In test [2] the target is T2, Plk1 PBD (Homo sapiens, UniProt P53350).
T2 construct: Mitotic 293A lysates expressing HA-EGFP-Plk1 were prepared in the TBSN buffer; expressed in transfected cells; host or cells: 293A cells, mitotic lysate
T2 sequence (P53350 whole entry): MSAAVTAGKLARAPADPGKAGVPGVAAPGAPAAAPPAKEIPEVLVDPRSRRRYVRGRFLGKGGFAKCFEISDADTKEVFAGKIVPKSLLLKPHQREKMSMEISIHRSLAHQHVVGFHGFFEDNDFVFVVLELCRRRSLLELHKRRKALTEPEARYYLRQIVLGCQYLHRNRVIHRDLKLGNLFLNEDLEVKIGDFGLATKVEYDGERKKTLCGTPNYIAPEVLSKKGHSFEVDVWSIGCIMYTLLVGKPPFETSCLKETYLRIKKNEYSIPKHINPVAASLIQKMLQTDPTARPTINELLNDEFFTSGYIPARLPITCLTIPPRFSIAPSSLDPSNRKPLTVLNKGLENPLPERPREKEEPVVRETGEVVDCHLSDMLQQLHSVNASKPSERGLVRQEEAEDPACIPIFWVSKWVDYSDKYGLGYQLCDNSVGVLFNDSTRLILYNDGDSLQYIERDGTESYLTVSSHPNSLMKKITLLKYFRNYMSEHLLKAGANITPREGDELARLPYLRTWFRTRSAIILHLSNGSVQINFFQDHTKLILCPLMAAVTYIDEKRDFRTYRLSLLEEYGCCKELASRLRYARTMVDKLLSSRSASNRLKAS
The experiment in a line: ELISA-based Plk1 PBD-binding inhibition assay. Here is the method:
The wells were washed once with PBS + 0.05% Tween 20 (PBST), and incubated with 200 µl of PBS + 1% BSA (blocking buffer) for 1 h to prevent the unoccupied sites. […] Next, the plates were washed four times with PBST, and to detect the bound HA-EGFP-Plk1, the plates were incubated for 2 h with 100 µL/well of anti-HA antibody at a concentration of 0.5 µg/mL in the blocking buffer, and then the plates were washed five times. Furthermore, the plates were incubated with 100 µL/well of secondary antibody at a 1:1,000 dilution in the blocking buffer. Afterward, the plates were washed five times with PBST and incubated with 100 µL/well of 3,3′,5,5′-tetramethylbenzidine (TMB) substrate solution (Sigma, St. Louis, MO) until a desired absorbance was achieved. The reactions were terminated by the addition of 1 N H2SO4, and the optical densities were measured at 450 nm using an ELISA plate reader (Molecular Device, Sunnyvale, CA).

The target in test [3] is T2, Plk1 PBD. Further details: method as in PMID 19597481. To be noted: cited from earlier work.
[4] abbreviates: ELISA-based assay, text values referring to Figure 2, read-out: IC50 (Plk1 PBD binding).
Where [5] appears, read: first-phase N-alkylated Pro derivatives, HA-EGFP-Plk1 from mitotic 293A lysates vs immobilized p-T78 peptide, Figure 2, read-out: IC50 (ELISA-based Plk1 PBD-binding assay, Figure 2B).

pIC50: −log10 of the molar value. Like-named read-outs stand apart in the source and are kept apart here. Where a SMILES comes first, the peptide text is derived from it.

T1 sequence (P53350 371-603): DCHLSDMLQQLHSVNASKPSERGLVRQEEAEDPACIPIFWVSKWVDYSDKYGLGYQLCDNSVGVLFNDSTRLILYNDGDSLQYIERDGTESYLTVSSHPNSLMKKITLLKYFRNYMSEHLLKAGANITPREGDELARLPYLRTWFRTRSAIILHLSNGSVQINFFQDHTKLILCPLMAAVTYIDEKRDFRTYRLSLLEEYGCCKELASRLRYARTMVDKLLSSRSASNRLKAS

One may read the pIC50 as −log10 of the IC50, conventionally taken in molar units. As for `COc1cc(CN2CCC[C@H]2C(=O)N[C@@H](CC(C)C)C(=O)N[C@@H](Cc2c[nH]cn2)C(=O)N[C@@H](CO)C(=O)N[C@H](C(=O)N[C@@H](CCSC)C(N)=O)[C@@H](C)OP(=O)(O)O)cc(OC)c1OC` [PL-42, (MeO)3PhCH2PLHSpTM] (HELM PEPTIDE1{[COc1cc(CN2CCC[C@H]2C(=O)[*:2])cc(OC)c1OC].L.H.S.[C[C@@H](OP(=O)(O)O)[C@H](N[*:1])C(=O)[*:2]].M.[am]}$$$$V2.0), the pIC50 in test [1] was 6.28; in test [2] (setting [4]), 5.83; in test [2] (setting [5]) it was 5.79.

As to `CSCC[C@H](NC(=O)[C@@H](NC(=O)[C@H](CO)NC(=O)[C@H](Cc1c[nH]cn1)NC(=O)[C@H](CC(C)C)NC(=O)[C@@H]1CCCN1Cc1cc2c(cc1Cl)OCO2)[C@@H](C)OP(=O)(O)O)C(N)=O` [PL-43] (HELM PEPTIDE1{[O=C([C@@H]1CCCN1Cc1cc2c(cc1Cl)OCO2)[*:2]].L.H.S.[C[C@@H](OP(=O)(O)O)[C@H](N[*:1])C(=O)[*:2]].M.[am]}$$$$V2.0), in test [2] (setting [5]), the negative-log IC50 (pIC50) was 5.35.

For `CSCC[C@H](NC(=O)[C@@H](NC(=O)[C@H](CO)NC(=O)[C@H](Cc1c[nH]cn1)NC(=O)[C@H](CC(C)C)NC(=O)[C@@H]1CCCN1C(=O)CC1CCCCC1)[C@@H](C)OP(=O)(O)O)C(N)=O` [PL-57] (HELM PEPTIDE1{[O=C(CC1CCCCC1)[*:2]].P.L.H.S.[C[C@@H](OP(=O)(O)O)[C@H](N[*:1])C(=O)[*:2]].M.[am]}$$$$V2.0), in test [2] (first-phase N-acylated cyclohexyl analogues, values printed in picture of Figure 4, read-out: IC50 (ELISA-based Plk1 PBD-binding assay, Figure 4B)), the pIC50 was 6.28.

With `CSCC[C@H](NC(=O)[C@@H](NC(=O)[C@H](CO)NC(=O)[C@H](Cc1c[nH]cn1)NC(=O)[C@H](CC(C)C)NC(=O)[C@@H]1CCCN1CC1CCCCC1)[C@@H](C)OP(=O)(O)O)C(N)=O` [PL-49, cyclohexylmethyl-PLHSpTM] (HELM PEPTIDE1{[O=C([C@@H]1CCCN1CC1CCCCC1)[*:2]].L.H.S.[C[C@@H](OP(=O)(O)O)[C@H](N[*:1])C(=O)[*:2]].M.[am]}$$$$V2.0), the negative-log IC50 (pIC50) in test [2] (setting [4]) was 6.44; in test [2] (setting [5]), 6.39.

For the compound LHSpTA, in test [3], the “binding to Plk1 PBD compared with PLHSpT” value was “almost as efficiently as the PLHSpT did”.

Regarding `CSCC[C@H](NC(=O)[C@@H](NC(=O)[C@H](CO)NC(=O)[C@H](Cc1c[nH]cn1)NC(=O)[C@H](CC(C)C)NC(=O)[C@@H]1CCCN1C(=O)CC12CC3CC(CC(C3)C1)C2)[C@@H](C)OP(=O)(O)O)C(N)=O` [PL-55] (HELM PEPTIDE1{[O=C(CC12CC3CC(CC(C3)C1)C2)[*:2]].P.L.H.S.[C[C@@H](OP(=O)(O)O)[C@H](N[*:1])C(=O)[*:2]].M.[am]}$$$$V2.0), the pIC50 in test [1] was 6.88.
